The term IC50 denotes the concentration that inhibits the measured activity by half.

The experiment addresses human nAChR (hnAChR α1/β1/γ/ε-HEK 293 Recombinant Cell Line) (Homo sapiens, UniProt P02708+Q04844+Q07001). The experiment can be described thus: cell-based.

Molecules are shown by their SMILES. Where a SMILES comes first, the peptide text is derived from it. Bridges are numbered along the chain shown (N, C = ends).

Chain of human nAChR (hnAChR α1/β1/γ/ε-HEK 293 Recombinant Cell Line) (P02708 whole entry, looked up): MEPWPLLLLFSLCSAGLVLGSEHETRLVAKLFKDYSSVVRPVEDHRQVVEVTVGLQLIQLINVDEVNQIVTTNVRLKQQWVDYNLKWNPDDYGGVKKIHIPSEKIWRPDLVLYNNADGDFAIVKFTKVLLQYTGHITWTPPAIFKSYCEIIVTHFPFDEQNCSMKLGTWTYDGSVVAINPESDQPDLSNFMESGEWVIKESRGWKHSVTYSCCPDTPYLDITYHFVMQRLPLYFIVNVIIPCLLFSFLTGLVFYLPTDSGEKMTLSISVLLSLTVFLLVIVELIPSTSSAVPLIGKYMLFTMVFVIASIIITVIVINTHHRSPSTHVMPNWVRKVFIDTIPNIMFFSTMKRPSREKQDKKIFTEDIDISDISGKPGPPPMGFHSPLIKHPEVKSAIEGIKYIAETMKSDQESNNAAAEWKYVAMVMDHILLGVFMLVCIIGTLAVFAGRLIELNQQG
Chain of human nAChR (hnAChR α1/β1/γ/ε-HEK 293 Recombinant Cell Line) (Q04844 whole entry, looked up): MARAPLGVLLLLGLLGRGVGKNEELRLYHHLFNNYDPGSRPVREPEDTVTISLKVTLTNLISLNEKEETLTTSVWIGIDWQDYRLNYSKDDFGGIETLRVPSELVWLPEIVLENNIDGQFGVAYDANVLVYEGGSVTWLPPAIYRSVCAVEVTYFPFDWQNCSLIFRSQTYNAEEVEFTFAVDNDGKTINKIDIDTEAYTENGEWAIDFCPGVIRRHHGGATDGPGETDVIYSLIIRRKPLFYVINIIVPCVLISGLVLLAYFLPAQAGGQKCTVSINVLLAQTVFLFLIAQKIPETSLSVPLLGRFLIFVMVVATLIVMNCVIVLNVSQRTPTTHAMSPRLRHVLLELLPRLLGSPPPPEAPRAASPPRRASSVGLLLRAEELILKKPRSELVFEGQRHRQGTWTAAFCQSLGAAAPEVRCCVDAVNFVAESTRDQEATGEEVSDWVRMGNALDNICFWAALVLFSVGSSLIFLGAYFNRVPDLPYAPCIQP
Chain of human nAChR (hnAChR α1/β1/γ/ε-HEK 293 Recombinant Cell Line) (Q07001 whole entry, looked up): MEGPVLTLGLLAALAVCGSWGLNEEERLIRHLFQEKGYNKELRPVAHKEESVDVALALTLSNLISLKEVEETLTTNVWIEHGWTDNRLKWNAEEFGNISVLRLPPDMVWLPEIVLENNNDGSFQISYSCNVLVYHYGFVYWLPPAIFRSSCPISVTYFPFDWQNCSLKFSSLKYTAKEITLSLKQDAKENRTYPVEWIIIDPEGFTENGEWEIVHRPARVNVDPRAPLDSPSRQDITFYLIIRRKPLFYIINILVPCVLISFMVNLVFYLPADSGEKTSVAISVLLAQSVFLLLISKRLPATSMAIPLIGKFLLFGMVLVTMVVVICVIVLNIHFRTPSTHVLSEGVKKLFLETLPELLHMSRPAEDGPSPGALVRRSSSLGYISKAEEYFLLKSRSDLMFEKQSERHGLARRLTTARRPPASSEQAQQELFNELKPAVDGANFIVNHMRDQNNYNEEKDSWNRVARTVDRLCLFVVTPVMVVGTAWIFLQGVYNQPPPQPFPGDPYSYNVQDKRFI

In the case of `CC(=O)N[C@H]1CSSC[C@@H]2NC(=O)[C@H](C)NC(=O)[C@@H]3CCCN3C(=O)[C@H](CC(N)=O)NC(=O)[C@H](CSSC[C@@H](C(N)=O)NC(=O)[C@H](CO)NC(=O)[C@H](Cc3ccc(O)cc3)NC(=O)[C@H](CC(N)=O)NC(=O)[C@H](CCCCN)NC(=O)CNC2=O)NC1=O` [SEQ ID NO: 60, Ac-Cys-Cys-Asn-Pro-Ala-Cys-Gly-Lys-Asn-Tyr-Ser-Cys-NH2] (Ac-CCNPACGKNYSC-NH2; disulfide 1-6, 2-12), the IC50 is greater than 100 nM. Regarding `CC(=O)N[C@H]1CSSC[C@@H]2NC(=O)[C@H](C)NC(=O)[C@@H]3CCCN3C(=O)[C@H](CC(N)=O)NC(=O)[C@H](CSSC[C@@H](C(N)=O)NC(=O)[C@H](CCCCN)NC(=O)[C@H](Cc3ccc(O)cc3)NC(=O)[C@H](CC(N)=O)NC(=O)[C@H](CCCCN)NC(=O)CNC2=O)NC1=O` [SEQ ID NO: 62, Ac-Cys-Cys-Asn-Pro-Ala-Cys-Gly-Lys-Asn-Tyr-Lys-Cys-NH2] (Ac-CCNPACGKNYKC-NH2; disulfide 1-6, 2-12), the IC50 was greater than 100 nM.

These data come from US20240076314A1 (priority 2020, published 2024).
